This note sets out measurements from EP4563571A1, “PRMT5 INHIBITORS” (Beijing Earthwise Technology Co., Ltd., priority 2022, dated 2024).

As a reminder, the GI50 is the concentration that inhibits growth by half.

The subject of the first test is HCT116 cells. Kind of test: Anti-proliferation assay on cells (Cell-Titer Glo, 10 days). Type of test: cell-based. Conditions: ratio of GI50 values. On the procedure:
Assay example 1: Method of anti-proliferation assay on cells
HCT116^MTAP Deletion cells were from Pharmaron (China); HCT116 cells were from ATCC; McCoy's 5A medium was purchased from Invitrogen (USA); penicillin-streptomycin and fetal bovine serum were purchased from Gibco (USA); a 384-well plate was purchased from PerkinElmer (USA); and Cell-Titer Glo reagent was purchased from Promega (USA).
Compound dissolution: All the compounds were dissolved in dimethyl sulfoxide (DMSO) and then stored. The compounds were stored at room temperature in a dry condition for 3 months for short term storage or at -20 °C for long term storage.
Cell culture and passaging
The cells were cultured strictly in accordance with ATCC requirements. The cell culture medium (McCoy's 5A medium + 10% fetal bovine serum + 1% penicillin + streptomycin) was transferred to a 15 mL centrifuge tube and centrifuged at 1000 rpm for 5 min. The supernatant was removed. The cells were resuspended with complete culture medium, inoculated into a culture dish at the required density, and cultured in an incubator at 37 °C, 95% humid air, and 5% carbon dioxide. The culture medium was replenished or the cells were passaged every 2-3 days depending on the cell growth condition.
Cell proliferation activity assay
When the confluency of cells in the culture dish reached about 90%, the cells were washed twice with PBS, and then treated with trypsin to become single cells. The cells were counted, and 40µl of the cells was inoculated into each well of a 384-well plate (50 cells/well). The plate was equilibrated at 37 °C and 5% carbon dioxide for 10 to 15 minutes. The compounds were injected into the 384-well plate using Echo550, and positive control and negative control (0.1% DMSO) were set up. Each compound was subjected to a 3-fold dilution, resulting in 10 concentration gradients, in duplicate, and the content of DMSO was 0.1%. The 384-well plate was incubated in a cell culture incubator for 10 days.
Then, 40 µl of cell proliferation assay reagent (CTG) was added to the 384-well plate, and the plate was shaken to mix well. Then, the 384-well plate was incubated at 37 °C and 5% carbon dioxide in the dark for 30 minutes. The data were read using the Envision multifunctional microplate reader. […] According to the different drug concentrations and their corresponding inhibition rates, the GI50 curve was drawn using GraphPad 8.0 software. The data were analyzed, and the final IC50 value was obtained.
In addition, the compounds of the present disclosure also have selectivity for mutant HCT116 cells. […] The selectivity data of representative compounds are shown in Table 2: Table 2 Selectivity data of representative compounds
In the case of `CN(C(=O)C(=O)Nc1cnc(N)c2c1cnn2C)C1COCc2cc(Cl)c(Cl)cc21` (single isomer, unassigned) [Example 163-P1], the “Selectivity multiple of HCT116^MTAP WT GI50/ HCT116^MTAP Deletion GI50” value (from here on “Selectivity multiple”) came to 94.
Turning to `CC1OCC(N(C)C(=O)C(=O)Nc2cnc(N)c3c2cnn3C)c2ccc(C(F)(F)F)cc21` (single isomer, unassigned) [Example 187-P1], the “Selectivity multiple” value is listed as 78.
On to `CC1OCC(N(C)C(=O)C(=O)Nc2cnc(N)c3c2cnn3C)c2ccc(C(F)(F)F)cc21` (single isomer, unassigned) [Example 187-P2], for which the “Selectivity multiple” value is reported as 59.
Turning to `CN(C(=O)C(=O)Nc1cnc(N)c2c1cnn2C)C1COCc2c1ccc(Cl)c2Cl` (stereo not drawn) [Example 168-P1], the “Selectivity multiple” value is 147.
As to `Cc1ncc(-c2ccc3c(c2)COCC3N(C)C(=O)C(=O)Nc2cnc(N)c3c2cnn3C)s1` (stereo not drawn) [Example 181-P1], the “Selectivity multiple” value turned out to be 247.

The next test has as its system HCT116^MTAP Deletion cells. Described as above. Type of test: cell-based. Conditions: 240 h, HCT116^MTAP Deletion cells, 10 days incubation, CTG readout; read-out: HCT116^MTAP Deletion GI50. The essentials: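 HCT116^MTAP Deletion cells seeded at 50 cells/well and exposed to 10-point 3-fold compound dilutions in duplicate (0.1% DMSO) for 10 days at 37 °C. Viability read by CellTiter-Glo luminescence; IC50 derived from GI50 curves of concentration versus inhibition.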
Consider `CN(C(=O)C(=O)Nc1cnc(N)c2c1cnn2C)C1COCc2cc(OC3CC3)ccc21` (stereo not drawn) [Example 171], for which the GI50 was 10 to 100 nM.
As for `CN(C(=O)C(=O)Nc1cnc(N)c2c1cnn2C)C1COCc2cc(N3CCOCC3)ccc21` (stereo not drawn) [Example 175], the GI50 lay within 10 to 100 nM.
Consider `CN(C(=O)C(=O)Nc1cnc(N)c2c1cnn2C)C1COc2cc(C(F)(F)F)cc(F)c21` (stereo not drawn) [Example 176], for which the GI50 was 10 to 100 nM.
In the case of `CN(C(=O)C(=O)Nc1cnc(N)c2c1cnn2C)C1COc2cc(-c3ccc(C(F)(F)F)cn3)ccc21` (stereo not drawn) [Example 177], the GI50 was in the range of 10 to 100 nM.
With `Cc1cc(-c2ccc3c(c2)COCC3N(C)C(=O)C(=O)Nc2cnc(N)c3c2cnn3C)on1` (stereo not drawn) [Example 179], the concentration for 50% growth inhibition (GI50) lay in the range of 10 to 100 nM.
Still for that read-out and setting: as for `CN(C(=O)C(=O)Nc1cnc(N)c2c1cnn2C)C1COc2cc(C(F)(F)F)ncc21` (stereo not drawn) [Example 188], the figure is 10 to 100 nM.
Still for that read-out and setting: next, `CN(C(=O)C(=O)Nc1cnc(N)c2c1cnn2C)C1COc2cc(S(C)(=O)=O)ccc21` (stereo not drawn) [Example 189]: 10 to 100 nM.
For `CN(C(=O)C(=O)Nc1cnc(N)c2c1cnn2C)C1COc2cc(C3CCOCC3)ccc21` (stereo not drawn) [Example 190], the 50% growth inhibitory concentration (GI50) was 10 to 100 nM.
The same measure, in the same setting: next, `CN(C(=O)C(=O)Nc1cnc(N)c2c1cnn2C)C1COCc2cc(-c3cnc(C(F)(F)F)s3)ccc21` (stereo not drawn) [Example 191]: less than 10 nM.
For `CN(C(=O)C(=O)Nc1cnc(N)c2c1cnn2C)C1COc2cc(C3CC3)ccc21` (stereo not drawn) [Example 193], the concentration for 50% growth inhibition (GI50) lay within 10 to 100 nM.
Take `CN(C(=O)C(=O)Nc1cnc(N)c2c1cnn2C)C1COc2cc(OC(F)(F)F)ccc21` (stereo not drawn) [Example 196]: the concentration for 50% growth inhibition (GI50) lay within 10 to 100 nM.
Turning to `CN(C(=O)C(=O)Nc1cnc(N)c2c1cnn2C)C1COCc2cc(C34CCOCC3C4)ccc21` (stereo not drawn) [Example 197], the concentration for 50% growth inhibition (GI50) was less than 10 nM.
For the compound `CN(C(=O)C(=O)Nc1cnc(N)c2c1cnn2C)C1COc2cc(C#N)ccc21` (stereo not drawn) [Example 198], the GI50 fell in the range of 10 to 100 nM.
Consider `CN(C(=O)C(=O)Nc1cnc(N)c2c1cnn2C)C1COc2cc(C(F)(F)F)c(F)cc21` (stereo not drawn) [Example 199], for which the GI50 fell in the range of 10 to 100 nM.
Turning to `Cc1nn(C)cc1-c1ccc2c(c1)COCC2N(C)C(=O)C(=O)Nc1cnc(N)c2c1cnn2C` (stereo not drawn) [Example 200], the GI50 was less than 10 nM.
Same read-out and setting: next, `COc1ccc(-c2ccc3c(c2)COCC3N(C)C(=O)C(=O)Nc2cnc(N)c3c2cnn3C)cn1` (stereo not drawn) [Example 202]: less than 10 nM.
As to `CN(C(=O)C(=O)Nc1cnc(N)c2c1cnn2C)C1COCc2cc(C3(F)CNC3)ccc21` (stereo not drawn) [Example 203], the GI50 fell in the range of 10 to 100 nM.
On to `CN(C(=O)C(=O)Nc1cnc(N)c2c1cnn2C)C1COc2cc(OC(F)F)ccc21` (stereo not drawn) [Example 204], for which the GI50 was in the range of 10 to 100 nM.
Consider `CN(C(=O)C(=O)Nc1cnc(N)c2c1cnn2C)C1COc2cc(N3CCOCC3)ccc21` (stereo not drawn) [Example 205], for which the GI50 was 10 to 100 nM.
As for `CCc1ccc2c(c1)OCC2N(C)C(=O)C(=O)Nc1cnc(N)c2c1cnn2C` (stereo not drawn) [Example 206], the GI50 was less than 10 nM.
For `Cc1ncc(-c2ccc3c(c2)COCC3N(C)C(=O)C(=O)Nc2cnc(N)c3c2cnn3C)o1` (stereo not drawn) [Example 207], the GI50 was less than 10 nM.
Regarding `CN(C(=O)C(=O)Nc1cnc(N)c2c1cnn2C)C1COc2c1ccc(C(F)(F)F)c2F` (stereo not drawn) [Example 208], the GI50 lay within 10 to 100 nM.
With `CN(C(=O)C(=O)Nc1cnc(N)c2c1cnn2C)C1COc2cc(C(F)(F)C(F)(F)F)ccc21` (stereo not drawn) [Example 210], the GI50 was less than 10 nM.
On to `CN(C(=O)C(=O)Nc1cnc(N)c2c1cnn2C)C1COc2cc(-c3ccccc3F)ccc21` (stereo not drawn) [Example 214], for which the GI50 is less than 10 nM.
For the compound `CN(C(=O)C(=O)Nc1cnc(N)c2c1cnn2C)C1COCc2cc(-c3ccccc3F)ccc21` (stereo not drawn) [Example 215], the GI50 was less than 10 nM.
Consider `CN(C(=O)C(=O)Nc1cnc(N)c2c1cnn2C)C1COc2cc(-c3ccccc3)ccc21` (stereo not drawn) [Example 216], for which the concentration for 50% growth inhibition (GI50) was 10 to 100 nM.
Consider `CN(C(=O)C(=O)Nc1cnc(N)c2c1cnn2C)C1COCc2cc(C(C)(C)C)ccc21` (stereo not drawn) [Example 217], for which the GI50 is less than 10 nM.
As for `CN(C(=O)C(=O)Nc1cnc(N)c2c1cnn2C)C1COCc2cc(C3(C#N)CC3)ccc21` (stereo not drawn) [Example 218], the 50% growth inhibitory concentration (GI50) was less than 10 nM.
Regarding `CN(C(=O)C(=O)Nc1cnc(N)c2c1cnn2C)C1COCc2nc(-c3ccccc3)ccc21` (stereo not drawn) [Example 219], the GI50 was less than 10 nM.
Still for that read-out and setting: as for `CN(C(=O)C(=O)Nc1cnc(N)c2c1cnn2C)C1COCc2nc(-c3ccnn3C3CC3)ccc21` (stereo not drawn) [Example 220], the figure is less than 10 nM.
For the compound `Cc1ncc(-c2cc3c(cn2)C(N(C)C(=O)C(=O)Nc2cnc(N)c4c2cnn4C)COC3)s1` (stereo not drawn) [Example 222], the GI50 was in the range of 10 to 100 nM.
With `CN(C(=O)C(=O)Nc1cnc(N)c2c1cnn2C)C1COCc2nc(-c3ccccc3F)ccc21` (stereo not drawn) [Example 225], the GI50 is less than 10 nM.
As to `CN(C(=O)C(=O)Nc1cnc(N)c2c1cnn2C)C1COCc2cc(-c3ccccc3)ccc21` (stereo not drawn) [Example 226], the GI50 is less than 10 nM.
On to `CN(C(=O)C(=O)Nc1cnc(N)c2c1cnn2C)C1COCc2cc(S(C)(=O)=O)ccc21` (stereo not drawn) [Example 227], for which the GI50 lay within 10 to 100 nM.
Turning to `CN(C(=O)C(=O)Nc1cnc(N)c2c1cnn2C)C1COc2cc(-c3nncn3C3CC3)ccc21` (stereo not drawn) [Example 228], the concentration for 50% growth inhibition (GI50) lay within 100 to 1000 nM.
`Cc1nc(-c2ccc3c(c2)OCC3N(C)C(=O)C(=O)Nc2cnc(N)c3c2cnn3C)no1` (stereo not drawn) [Example 229]: the GI50 is 10 to 100 nM.
In the case of `CC(C)c1ccc2c(c1)OCC2N(C)C(=O)C(=O)Nc1cnc(N)c2c1cnn2C` (stereo not drawn) [Example 230], the GI50 is less than 10 nM.
Consider `CN(C(=O)C(=O)Nc1cnc(N)c2c1cnn2C)C1COCc2cc(-c3ccnn3C3CC3)ccc21` (stereo not drawn) [Example 232], for which the GI50 was less than 10 nM.
The same measure, in the same setting: as for `CN(C(=O)C(=O)Nc1cnc(N)c2c1cnn2C)C1COc2ccccc2C1` (stereo not drawn) [Example 234], the figure is 100 to 1000 nM.
With `CN(C(=O)C(=O)Nc1cnc(N)c2c1cnn2C)C1COCc2cc(C3(C(F)(F)F)CC3)ccc21` (stereo not drawn) [Example 237], the GI50 is less than 10 nM.
As for `CN(C(=O)C(=O)Nc1cnc(N)c2c1cnn2C)C1COCc2cc(C(F)(F)C(F)(F)F)ccc21` (stereo not drawn) [Example 238], the concentration for 50% growth inhibition (GI50) is less than 10 nM.
`CN(C(=O)C(=O)Nc1cnc(N)c2c1cnn2C)C1COc2cc(-c3ccc(C4CC4)nc3)ccc21` (stereo not drawn) [Example 239]: the concentration for 50% growth inhibition (GI50) is less than 10 nM.
On the same count and under the same terms, next, `CC#Cc1ccc2c(c1)OCC2N(C)C(=O)C(=O)Nc1cnc(N)c2c1cnn2C` (stereo not drawn) [Example 240]: 10 to 100 nM.

The test is the same for the next values; noted with them: HCT116^MTAP Deletion cells, 10 days incubation, CTG readout; read-out: HCT116^MTAP Deletion GI50.
In the case of `CN(C(=O)C(=O)Nc1cnc(N)c2c1cnn2C)C1COc2cc(-c3cnn(C4CC4)c3)ccc21` (stereo not drawn) [Example 211], the 50% growth inhibitory concentration (GI50) is less than 10 nM.
On to `CN(C(=O)C(=O)Nc1cnc(N)c2c1cnn2C)C1COc2cc(-c3ccnn3C3CC3)ccc21` (stereo not drawn) [Example 212], for which the 50% growth inhibitory concentration (GI50) is less than 10 nM.
In the case of `CN(C(=O)C(=O)Nc1cnc(N)c2c1cnn2C)C1COc2cc(-c3cnn(C(F)(F)F)c3)ccc21` (stereo not drawn) [Example 213], the concentration for 50% growth inhibition (GI50) is less than 10 nM.
Same read-out and setting: as for `Cc1ccc2c(c1)OCC2N(C)C(=O)C(=O)Nc1cnc(N)c2c1cnn2C` (stereo not drawn) [Example 233], the figure is 10 to 100 nM; as for `CN(C(=O)C(=O)Nc1cnc(N)c2c1cnn2C)C1COc2cc(-c3cnc(C4CC4)s3)ccc21` (stereo not drawn) [Example 236], less than 10 nM; as for `CC1OCC(N(C)C(=O)C(=O)Nc2cnc(N)c3c2cnn3C)c2ccc(C(F)(F)F)cc21` (stereo not drawn) [compound 187], less than 10 nM.
